Patent US9040533B2, “Oxime-substituted-quinoxaline-type piperidine compounds as ORL-1 modulators” (priority 2012, dated 2015)

Assays:
Assay in all cases: biochemical
[1] = target: T1, CYP1A2 (Homo sapiens, UniProt P05177)
T1 sequence (P05177 1-516): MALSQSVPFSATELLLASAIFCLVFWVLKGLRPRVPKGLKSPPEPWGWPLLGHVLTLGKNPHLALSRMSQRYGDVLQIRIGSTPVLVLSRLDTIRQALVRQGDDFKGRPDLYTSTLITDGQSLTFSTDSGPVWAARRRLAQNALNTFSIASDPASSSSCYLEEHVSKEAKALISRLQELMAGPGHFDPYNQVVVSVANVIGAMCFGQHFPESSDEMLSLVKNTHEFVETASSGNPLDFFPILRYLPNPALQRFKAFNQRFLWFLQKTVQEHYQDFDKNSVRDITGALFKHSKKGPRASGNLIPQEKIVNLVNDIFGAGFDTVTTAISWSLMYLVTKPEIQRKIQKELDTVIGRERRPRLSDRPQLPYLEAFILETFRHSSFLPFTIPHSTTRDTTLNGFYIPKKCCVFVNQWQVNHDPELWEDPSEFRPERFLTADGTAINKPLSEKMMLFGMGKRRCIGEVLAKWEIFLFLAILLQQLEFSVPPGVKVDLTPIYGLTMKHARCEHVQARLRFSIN

[2] = target: CYP2D6 (Homo sapiens, UniProt P10635)
[3] = target: CYP3A4 (Homo sapiens, UniProt P08684)
[4] = target: CYP2C9 (Homo sapiens, UniProt P11712)
[5] = target: CYP2C19 (Homo sapiens, UniProt P33261)

Measured: IC50

Chain of CYP3A4 (P08684 whole entry): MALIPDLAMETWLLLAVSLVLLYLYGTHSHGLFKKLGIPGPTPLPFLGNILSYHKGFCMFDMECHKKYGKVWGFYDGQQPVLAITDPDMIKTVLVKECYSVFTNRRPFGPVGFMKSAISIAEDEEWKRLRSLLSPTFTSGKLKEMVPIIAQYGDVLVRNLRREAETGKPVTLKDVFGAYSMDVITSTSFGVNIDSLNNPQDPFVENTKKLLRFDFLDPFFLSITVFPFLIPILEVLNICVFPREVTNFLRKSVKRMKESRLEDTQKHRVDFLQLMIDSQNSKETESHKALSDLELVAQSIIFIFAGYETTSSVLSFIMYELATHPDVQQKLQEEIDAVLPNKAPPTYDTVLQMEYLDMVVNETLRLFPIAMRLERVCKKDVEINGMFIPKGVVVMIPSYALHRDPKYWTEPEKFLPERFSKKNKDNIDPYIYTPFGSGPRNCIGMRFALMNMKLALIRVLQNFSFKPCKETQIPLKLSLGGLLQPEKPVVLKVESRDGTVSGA
Chain of CYP2D6 (P10635 whole entry): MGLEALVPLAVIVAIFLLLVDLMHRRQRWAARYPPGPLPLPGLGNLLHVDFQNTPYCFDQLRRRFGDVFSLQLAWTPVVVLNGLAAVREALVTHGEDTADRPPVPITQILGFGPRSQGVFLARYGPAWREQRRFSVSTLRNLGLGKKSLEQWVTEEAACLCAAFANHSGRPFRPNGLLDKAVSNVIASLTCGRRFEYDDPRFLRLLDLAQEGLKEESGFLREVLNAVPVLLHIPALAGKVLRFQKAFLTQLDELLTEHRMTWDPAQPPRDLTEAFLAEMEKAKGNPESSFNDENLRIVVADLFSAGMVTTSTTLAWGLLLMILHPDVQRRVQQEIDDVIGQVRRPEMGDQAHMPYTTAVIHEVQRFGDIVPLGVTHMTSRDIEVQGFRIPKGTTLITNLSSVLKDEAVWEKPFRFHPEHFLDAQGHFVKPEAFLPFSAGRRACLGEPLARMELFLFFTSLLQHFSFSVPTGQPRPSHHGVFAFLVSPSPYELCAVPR
Chain of CYP2C19 (P33261 whole entry): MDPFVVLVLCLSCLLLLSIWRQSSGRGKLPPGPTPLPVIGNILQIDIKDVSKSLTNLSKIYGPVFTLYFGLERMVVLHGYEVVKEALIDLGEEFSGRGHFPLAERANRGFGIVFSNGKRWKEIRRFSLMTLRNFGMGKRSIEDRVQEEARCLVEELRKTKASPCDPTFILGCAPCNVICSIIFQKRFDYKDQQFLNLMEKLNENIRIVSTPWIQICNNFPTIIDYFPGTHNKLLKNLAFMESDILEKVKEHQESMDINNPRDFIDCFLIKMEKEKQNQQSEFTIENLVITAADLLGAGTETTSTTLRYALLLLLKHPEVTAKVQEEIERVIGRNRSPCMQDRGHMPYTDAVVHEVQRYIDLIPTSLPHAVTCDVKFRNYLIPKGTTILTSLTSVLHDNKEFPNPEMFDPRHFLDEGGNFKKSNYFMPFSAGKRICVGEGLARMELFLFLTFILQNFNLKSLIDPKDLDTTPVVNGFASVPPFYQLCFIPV
Chain of CYP2C9 (P11712 whole entry): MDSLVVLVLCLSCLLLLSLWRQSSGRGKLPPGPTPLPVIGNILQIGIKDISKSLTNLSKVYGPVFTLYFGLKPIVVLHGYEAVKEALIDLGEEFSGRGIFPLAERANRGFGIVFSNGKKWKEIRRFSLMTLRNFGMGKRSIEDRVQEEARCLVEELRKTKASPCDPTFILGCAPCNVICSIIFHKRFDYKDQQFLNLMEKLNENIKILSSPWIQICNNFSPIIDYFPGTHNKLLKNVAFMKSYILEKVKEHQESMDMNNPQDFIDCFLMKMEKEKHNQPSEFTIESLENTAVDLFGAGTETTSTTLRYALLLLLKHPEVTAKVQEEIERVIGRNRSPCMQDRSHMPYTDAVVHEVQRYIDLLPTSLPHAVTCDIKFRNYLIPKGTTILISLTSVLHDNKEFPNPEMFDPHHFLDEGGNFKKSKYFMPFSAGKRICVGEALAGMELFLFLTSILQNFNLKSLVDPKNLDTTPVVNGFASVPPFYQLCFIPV

CC(C)O/N=C(\C(=O)O)c1nc2ccccc2n([C@H]2C[C@H]3CCC[C@@H](C2)N3C2CC3CCCCC(C3)C2)c1=O (stereo partly drawn) [Compound 33, 2-(4-((1R,3R)-9-(bicyclo[4.3.1]decan-8-yl)-9-azabicyclo[3.3.1]nonan-3-yl)-3-oxo-3,4-dihydroquinoxalin-2-yl)-2-(isopropoxyimino)acetic acid]
> 20 µM: all assays above

CCON=C(C(=O)O)c1nc2ccccc2n([C@H]2C[C@H]3CC[C@@H](C2)N3C2CC3CCCCC(C3)C2)c1=O (stereo partly drawn) [Compound 36]
> 20 µM: all assays above

CC(C)ON=C(C(=O)O)c1nc2ccccc2n([C@H]2C[C@H]3CC[C@@H](C2)N3C2CC3CCCCC(C3)C2)c1=O (stereo partly drawn) [Compound 37, [4-((1S,3R,5R)-(1R,6S,8S)-8-bicyclo[4.3.1]dec-8-yl-8-aza-bicyclo[3.2.1]oct-3-yl)-3-oxo-3,4-dihydro-quinoxalin-2-yl]-isopropoxyimino-acetic acid]
> 20 µM: all assays above

NC(=O)CO/N=C(\C(=O)O)c1nc2ccccc2n([C@H]2C[C@H]3CCC[C@@H](C2)N3C2CC3CCCC(C3)C2)c1=O (stereo partly drawn) [Compound 38, (Z)-2-(2-amino-2-oxoethoxyimino)-2-(4-((1R,3R)-9-(bicyclo[3.3.1]nonan-3-yl)-9-azabicyclo[3.3.1]nonan-3-yl)-3-oxo-3,4-dihydroquinoxalin-2-yl)acetic acid]
> 20 µM: all assays above

NC(=O)CO/N=C(\CCC(=O)O)c1nc2ccccc2n([C@H]2C[C@H]3CCC[C@@H](C2)N3C2CC3CCCC(C3)C2)c1=O (stereo partly drawn) [Compound 39]
> 20 µM: all assays above

NC(=O)CO/N=C(\CCC(=O)O)c1nc2ccccc2n([C@H]2C[C@H]3CCC[C@@H](C2)N3C2CC3CCCCC(C3)C2)c1=O (stereo partly drawn) [Compound 41, (E)-4-(2-amino-2-oxoethoxyimino)-4-(4-((1R,3R)-9-(bicyclo[4.3.1]decan-8-yl)-9-azabicyclo[3.3.1]nonan-3-yl)-3-oxo-3,4-dihydroquinoxalin-2-yl)butanoic acid]
> 20 µM: all assays above

CNC(=O)CCC(=NOCC(=O)O)c1nc2ccccc2n([C@H]2C[C@H]3CCC[C@@H](C2)N3C2CC3CCCC(C3)C2)c1=O (stereo partly drawn) [Compound 42, 2-(((1-(4-((1R,1′R,3r,3′R,5S,5′S)-[3,9′-bi(9′-azabicyclo[3.3.1]nonan)]-3′-yl)-3-oxo-3,4-dihydroquinoxalin-2-yl)-4-(methylamino)-4-oxobutylidene)amino)oxy)acetic acid]
> 20 µM: all assays above

CNC(=O)/C(=N\OCC(=O)O)c1nc2ccccc2n([C@H]2C[C@H]3CCC[C@@H](C2)N3C2CC3CCCC(C3)C2)c1=O (stereo partly drawn) [Compound 43]
> 20 µM: all assays above

NC(=O)CCC(=NOCC(=O)O)c1nc2ccccc2n([C@H]2C[C@H]3CCC[C@@H](C2)N3C2CC3CCCC(C3)C2)c1=O (stereo partly drawn) [Compound 44]
> 20 µM: all assays above

NC(=O)CO/N=C(\C(=O)O)c1nc2ccccc2n([C@H]2C[C@H]3CCC[C@@H](C2)N3C2CC3CCCCC(C3)C2)c1=O (stereo partly drawn) [Compound 45, (Z)-2-(2-amino-2-oxoethoxyimino)-2-(4-((1R,3R)-9-(bicyclo[4.3.1]decan-8-yl)-9-azabicyclo[3.3.1]nonan-3-yl)-3-oxo-3,4-dihydroquinoxalin-2-yl)acetic acid]
> 20 µM: all assays above

COCCO/N=C(\C(=O)O)c1nc2ccccc2n([C@H]2C[C@H]3CCC[C@@H](C2)N3C2CC3CCCCC(C3)C2)c1=O (stereo partly drawn) [Compound 46]
> 20 µM: all assays above

COCCO/N=C(\C(=O)O)c1nc2ccccc2n([C@H]2C[C@H]3CCC[C@@H](C2)N3C2CC3CCCC(C3)C2)c1=O (stereo partly drawn) [Compound 49]
> 20 µM: all assays above

CON=C(C(=O)O)c1nc2ccccc2n([C@H]2C[C@H]3COC[C@@H](C2)N3C2CC3CCCCC(C3)C2)c1=O (stereo partly drawn) [Compound 50, [4-((1R,5S,7S)-(1S,6R,8R)-9-bicyclo[4.3.1]dec-8-yl-3-oxa-9-aza-bicyclo[3.3.1]non-7-yl)-3-oxo-3,4-dihydro-quinoxalin-2-yl]-methoxyimino-acetic acid]
> 20 µM: all assays above

CN(C)C(=O)C(=NOCC(=O)O)c1nc2ccccc2n([C@H]2C[C@H]3CCC[C@@H](C2)N3C2CC3CCCC(C3)C2)c1=O (stereo partly drawn) [Compound 51]
> 20 µM: all assays above

CC(O/N=C(\C(=O)O)c1nc2ccccc2n([C@H]2C[C@H]3CCC[C@@H](C2)N3C2CC3CCCC(C3)C2)c1=O)C(N)=O (stereo partly drawn) [Compound 52]
> 20 µM: all assays above

CC(C)C(O/N=C(\C(=O)O)c1nc2ccccc2n([C@H]2C[C@H]3CCC[C@@H](C2)N3C2CC3CCCC(C3)C2)c1=O)C(N)=O (stereo partly drawn) [Compound 53]
> 20 µM: all assays above

CNC(=O)C(=NOCC(=O)O)c1nc2ccccc2n([C@H]2C[C@H]3CCC[C@@H](C2)N3C2CC3CCCCC(C3)C2)c1=O (stereo partly drawn) [Compound 54]
> 20 µM: all assays above

NC(=O)C(=NOCC(=O)O)c1nc2ccccc2n([C@H]2C[C@H]3CCC[C@@H](C2)N3C2CC3CCCCC(C3)C2)c1=O (stereo partly drawn) [Compound 55]
> 20 µM: all assays above

COCCO/N=C(\CCC(=O)O)c1nc2ccccc2n([C@H]2C[C@H]3CCC[C@@H](C2)N3C2CC3CCCCC(C3)C2)c1=O (stereo partly drawn) [Compound 56]
> 20 µM: all assays above

CC(C)(ON=C(C(N)=O)c1nc2ccccc2n([C@H]2C[C@H]3CCC[C@@H](C2)N3C2CC3CCCC(C3)C2)c1=O)C(=O)O (stereo partly drawn) [Compound 57]
> 20 µM: all assays above

CNC(=O)CCC(=NOCC(=O)O)c1nc2ccccc2n([C@H]2C[C@H]3CCC[C@@H](C2)N3C2CC3CCCCC(C3)C2)c1=O (stereo partly drawn) [Compound 58]
> 20 µM: all assays above
